Where two headings read alike, the source gives them in different places. Blank lines part the entries; values can stand above or below the molecule they belong to.
Legend:
PGE2 = assay: inhibition of PGE2, apparent IC50s of vitamin E forms; format: cell-based; details: for inhibitory effect on PGE2: e.g. ref. 10
[1] = plasma and exudate concentrations of alpha-T, gamma-T and gamma-CEHC in the air-pouch model; details: for gamma-T concentration in the collected exudate: 20-h after carrageenan
Experimental: Carrageenan-induced inflammation in the air-pouch model was performed and evaluated substantially as previously described (14). Alpha-T and gamma-T were measured in plasma and exudate as previously described (12). Gamma-CEHC was quantified essentially as previously described (13).
To evaluate the relative bio-availability of the administrated compounds, we measured plasma and exudate concentrations of gamma-T and alpha-T as well as plasma gamma-CEHC.

[2] = tested on: carrageenan-induced inflammation; assay: carrageenan-induced inflammation in the air-pouch model; format: in vivo, rat
Experimental: For this experimental protocol, we adapted the methods recited in the Experimental Example reported below. […] Formulations were administered as described below, wherein the recited tocopherol was dissolved in tocopherol-stripped corn oil, and continuously administrated by gavage for three days before the induction of inflammation. The PGE2 component of the formulation was empirically varied and adjusted to provide a minimized synergistic concentration. For example, aspirin formulations were adjusted to 50 or 100 mg/Kg with gamma-T at 30 mg/Kg. In controls evaluating the effects of aspim or gamma-T alone, we increased the aspririn dosage to 150 mg/Kg and gamma-T to […], respectively.
Gamma-CEHC was quantified essentially as previously described (13).
For the measurement of PGE2, LTB4 and 8-isoprostane, the exudate fluid was mixed vigorously with 2 mL methanol to precipitate proteins, and with 5 mL hexane to remove lipids. Following a brief centrifugation and aspiration of the hexane layer, the methanol layer was removed and evaporated under N2. PGE2, LTB4 and 8-isoprostane were measured using the corresponding ELISA kits from Cayman Chemicals (Ann Arbor, Mich.). TNF-a and lactate dehydrogenase (LDH) in the exudate were measured directly using an ELISA kit from R&D (Minneapolis, Minn.) and an analytical kit from Roche (Indianapolis, Ind.), respectively.
The total amount of nitrate and nitrite in the exudate was measured using the Model 280 nitric oxide analyzer (NOA™) (Sievers Instruments, Inc.; Boulder, Colo.). Nitrite and nitrate in the exudate were reduced by vanadium (III) to nitric oxide, which then was measured by a red-sensitive photomultiplier tube after being converted by ozone to chemiluminescent reactive nitrogen dioxide. Nitrite and nitrate were quantified based on a standard curve from nitrate that was established under the identical conditions.
Carrageenan-induced inflammation in the air-pouch model is commonly used to evaluate the pharmaceutical potency of anti-inflammatory drugs (14). […] These cells play a key role in the inflammatory response (11, 14, 15). A single injection of carrageenan caused a potent localized inflammation, as indicated by a marked increase in white cell infiltration, eicosanoid formation and tissue damages (11). To study the effect of gamma-CEHC on eicosanoid synthesis and neutrophil infiltration, it (1 mg/ml, 2 ml in PBS) was injected directly into the air pouch right before the injection of carrageenan. Since the retention of gamma-CEHC is relatively short (16), its effect was evaluated at 6 h after the induction of inflammation.
To test the effects of tocopherols, alpha-T or gamma-T, dissolved in tocopherol-stripped corn oil, was continuously administrated by gavage for three days before the induction of inflammation. Effects were evaluated at 20 h after carrageenan injection, when cell infiltration had reached a maximum in the pouch.

[3] = tested on: carrageenan-induced inflammation; details: cited from earlier work
normal epithelial cells = assay: effect on normal epithelial cells; format: cell-based
[4] = tested on: human prostate epithelial cancer cells; assay: anti-proliferative effect on prostate cancer cells; format: cell-based
[5] = tested on: lung epithelial cancer cells; assay: anti-proliferative effect on lung cancer cells; format: cell-based, human
[6] = cited from earlier work
[7] = 1 mg/ml, 2 ml in PBS injected into the air pouch, 6 h
[8] = 33 mg/kg by gavage for three days, 20 h after carrageenan, P<0.05

Molecule: CC(=O)Oc1ccccc1C(=O)O [aspirin, Acetylsalicylic acid]
neutrophil infiltration ([3]; doses of 100-150 mg/kg): did not affect
reduction of PGE2 ([3]; doses of 100-150 mg/kg): 50-70%
cell infiltration ([3]; higher doses, >200-300 mg/kg): inhibits cell infiltration

Molecule: Cc1cc(O)c(C)c2c1O[C@](C)(CCC[C@H](C)CCC[C@H](C)CCCC(C)C)CC2 [beta-T, beta-tocopherol, reference compound]
inhibitory effect on PGE2 (PGE2): weak to no inhibitory effect

Molecule: Cc1c(O)cc2c(c1C)OC(C)(CCC(=O)O)CC2 (centres unmarked) [gamma-CEHC, 2,7,8-trimethyl-2-(b-carboxyethyl)-6-hydroxychroman]
plasma concentration of gamma-CEHC ([1]; rat, in vivo): Nano-molar concentrations
plasma gamma-CEHC level relative to plasma gamma-T ([1]; rat, in vivo): less than 10%
inhibition of LTB4 [2, 7]: inhibited LTB4 and neutrophil infiltration, though non-significantly
inhibition of neutrophil infiltration [2, 7]: inhibited LTB4 and neutrophil infiltration, though non-significantly
reduction of PGE2 in the pouch ([2]; 1 mg/ml, 2 ml in PBS injected into the air pouch, 6 h after induction, P<0.05): ~29%

Molecule: CC(C)=CCC/C(C)=C/CC/C(C)=C/CC[C@]1(C)CCc2cc(O)c(C)c(C)c2O1 [gamma-tocotrienol]
IC50 (PGE2): 1 to 2.5 µM

Molecule: alpha-tocotrienol [reference compound]
inhibitory effect on PGE2 (PGE2): weak to no inhibitory effect

Second part, led by results:

increased alpha-T level in the plasma and exudate ([1]; 33 mg/kg alpha-T): approximately 2 fold
decrease of gamma-T in the exudate caused by alpha-T administration ([1]; P<0.05): 40%
decrease of gamma-T in the plasma caused by alpha-T administration ([1]; P<0.05): ~55%
Molecule: Cc1c(C)c2c(c(C)c1O)CC[C@@](C)(CCC[C@H](C)CCC[C@H](C)CCCC(C)C)O2 [alpha-T, alpha-tocopherol, reference compound]
inhibitory effect on PGE2 (PGE2): weak to no inhibitory effect
effects on generation of eicosanoids and 8-isoprostane ([2]; 33 mg/kg): did not show any significant effects

IC50 (PGE2): 2.5 to 5 µM
Molecule: Cc1cc(O)cc2c1O[C@](C)(CCC[C@H](C)CCC[C@H](C)CCCC(C)C)CC2 [delta-T, Delta-tocopherol]

IC50 (PGE2): 5 to 10 µM
elevation of gamma-T in exudate fluid vs corn-oil fed controls ([1]; 33 mg/kg): ~10 fold
gamma-T concentration in exudate, corresponding molar concentration ([1]; 33 mg/kg): ~10 µM
increase of gamma-T in the plasma vs corn-oil fed controls ([1]; 33 mg/kg): 3 fold
ratio of gamma-T to alpha-T in the exudate ([1]; 33 mg/kg gamma-T): ~0.3
gamma-T concentration in the collected exudate ([1]; 33 mg/kg): 93.3 nmol/gprotein
elevation of gamma-T in exudate fluid vs corn-oil fed controls ([1]; 100 mg/kg): ~20 fold
gamma-T concentration in exudate, corresponding molar concentration ([1]; 100 mg/kg): ~20 µM
increase of gamma-T in the plasma vs corn-oil fed controls ([1]; 100 mg/kg): 5 fold
ratio of gamma-T to alpha-T in the exudate ([1]; 100 mg/kg gamma-T): ~0.7
gamma-T concentration in the collected exudate ([1]; 100 mg/kg): 193 nmol/gprotein
ratio of gamma-T to alpha-T in the plasma ([1]; 33 or 100 mg/kg gamma-T): ~0.15
effect of gamma-T administration on alpha-T levels ([1]; rat, in vivo): did not significantly affect
Molecule: Cc1c(O)cc2c(c1C)O[C@](C)(CCC[C@H](C)CCC[C@H](C)CCCC(C)C)CC2 [gamma-T, gamma-tocopherol]
effect on normal epithelial cells (normal epithelial cells): had no effect
anti-proliferative effect [4]: showed anti-proliferative effects
anti-proliferative effect [5]: showed anti-proliferative effects
fraction of gamma-T converted to gamma-CEHC [6]: ≤ 50%
effect on total nitrate and nitrite ([2]; 33 mg/kg): had no effect
reduction of LTB4 [2, 8]: 70%
reduction of PGE2 [2, 8]: 46%
reduction of 8-isoprostane in the pouch (lipid peroxidation) ([2]; 33 mg/kg, P<0.05): ~57%
attenuation of the loss of food consumption ([2]; 33 mg/kg, non-significant, P=0.2): 20%
inhibition of TNF-a ([2]; 33 mg/kg, non-significant, P=0.29): ~51%
inhibitory potency against PGE2 ([2]; 100 mg/kg by gavage for three days, 20 h, P<0.05): 51%
attenuation of the loss of food consumption ([2]; 100 mg/kg, P<0.03): 30%
reduction of 8-isoprostane in the pouch (lipid peroxidation) ([2]; 100 mg/kg, P<0.05): ~57%
lowering of LDH (cytotoxicity and tissue damage marker) ([2]; 100 mg/kg, P=0.067): 30%
reduction of TNF-a ([2]; 100 mg/kg, P=0.069): 65%
reduction of total nitrite and nitrate ([2]; 100 mg/kg, P=0.1): 40%
neutrophil infiltration ([2]; gavage 33 or 100 mg/kg, 20 h): did not affect
